# Square brackets hold non-standard residues; d marks the D form. Peptide text beside a SMILES is read from it. Phe(4-Cl) = N[C@@H](Cc1ccc(Cl)cc1)C(=O)O; Phe(2-Cl) = N[C@@H](Cc1ccccc1Cl)C(=O)O
# Target: T1, Androgen receptor (Homo sapiens, UniProt P10275)
# T1 sequence (P10275 whole entry): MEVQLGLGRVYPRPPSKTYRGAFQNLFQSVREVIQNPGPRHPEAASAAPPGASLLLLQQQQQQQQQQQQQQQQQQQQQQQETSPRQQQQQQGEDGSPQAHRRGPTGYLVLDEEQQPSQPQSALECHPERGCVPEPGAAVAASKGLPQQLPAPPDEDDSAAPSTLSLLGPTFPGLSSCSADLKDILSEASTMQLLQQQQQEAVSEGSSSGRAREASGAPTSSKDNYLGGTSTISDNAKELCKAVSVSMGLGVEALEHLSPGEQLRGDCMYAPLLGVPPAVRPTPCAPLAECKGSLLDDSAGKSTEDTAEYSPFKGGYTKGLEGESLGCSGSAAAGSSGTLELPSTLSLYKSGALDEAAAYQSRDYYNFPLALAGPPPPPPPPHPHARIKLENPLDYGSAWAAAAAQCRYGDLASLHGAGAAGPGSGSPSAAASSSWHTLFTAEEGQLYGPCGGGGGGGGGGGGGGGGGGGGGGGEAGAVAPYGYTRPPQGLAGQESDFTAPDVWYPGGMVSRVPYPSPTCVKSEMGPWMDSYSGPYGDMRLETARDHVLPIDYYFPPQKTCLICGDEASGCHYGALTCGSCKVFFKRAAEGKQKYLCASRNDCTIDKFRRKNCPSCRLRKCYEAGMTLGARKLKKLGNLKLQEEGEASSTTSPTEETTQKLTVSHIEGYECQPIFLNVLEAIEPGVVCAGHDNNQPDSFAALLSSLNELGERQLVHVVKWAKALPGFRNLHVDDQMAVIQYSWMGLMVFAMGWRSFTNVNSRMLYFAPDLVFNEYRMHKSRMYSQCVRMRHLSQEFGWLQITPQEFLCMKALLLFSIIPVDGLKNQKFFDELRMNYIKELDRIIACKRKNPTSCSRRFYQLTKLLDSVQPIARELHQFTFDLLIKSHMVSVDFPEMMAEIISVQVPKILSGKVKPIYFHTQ
# Assay: Displacement of fluorescein-CSSRFESLFAGEKESR from human androgen receptor-LBD after 1 hr by fluorescence polarization assay
row,SMILES,Ki
1,CC[C@H](C)[C@H](NC(=O)[C@H](CS)NC(=O)[C@H](Cc1ccc(Cl)cc1)NC(=O)[C@H](CC(C)C)NC(=O)[C@H](CCC(=O)O)NC(=O)[C@H](CS)NC(=O)[C@H](Cc1ccccc1)NC(=O)[C@H](CCCNC(=N)N)NC(=O)[C@@H](N)CC(N)=O)C(=O)N[C@@H](CCC(N)=O)C(=O)NCC(=O)N[C@H](C(=O)NCC(=O)N[C@@H](CC(=O)O)C(=O)N[C@H](C(=O)N[C@@H](CCCCN)C(=O)N[C@@H](C)C(=O)N[C@@H](CS)C(=O)N[C@@H](CCC(=O)O)C(=O)N[C@@H](Cc1c[nH]c2ccccc12)C(=O)N[C@@H](C)C(=O)N[C@@H](CS)C(=O)N[C@@H](CCC(N)=O)C(=O)O)C(C)C)[C@@H](C)O (H-NRFCEL[Phe(4-Cl)]CIQGTGDVKACEWACQ-OH),32 µM
2,CC[C@H](C)[C@H](NC(=O)[C@H](CS)NC(=O)[C@H](Cc1ccccc1)NC(=O)[C@H](CC(C)C)NC(=O)[C@H](CCCCN)NC(=O)[C@H](CS)NC(=O)[C@H](Cc1ccccc1)NC(=O)[C@H](CCCNC(=N)N)NC(=O)[C@@H](N)CC(N)=O)C(=O)N[C@@H](CCC(N)=O)C(=O)NCC(=O)N[C@H](C(=O)NCC(=O)N[C@@H](CC(=O)O)C(=O)N[C@H](C(=O)N[C@@H](CCCCN)C(=O)N[C@@H](C)C(=O)N[C@@H](CS)C(=O)N[C@@H](CCC(=O)O)C(=O)N[C@@H](Cc1c[nH]c2ccccc12)C(=O)N[C@@H](C)C(=O)N[C@@H](CS)C(=O)N[C@@H](CCC(N)=O)C(=O)O)C(C)C)[C@@H](C)O (H-NRFCKLFCIQGTGDVKACEWACQ-OH),2.7 µM
3,CC[C@H](C)[C@H](NC(=O)[C@H](CS)NC(=O)[C@H](CC(C)C)NC(=O)[C@H](CC(C)C)NC(=O)[C@H](CCC(=O)O)NC(=O)[C@H](CS)NC(=O)[C@H](CC(C)C)NC(=O)[C@H](CCCNC(=N)N)NC(=O)[C@@H](N)CC(N)=O)C(=O)N[C@@H](CCC(N)=O)C(=O)NCC(=O)N[C@H](C(=O)NCC(=O)N[C@@H](CC(=O)O)C(=O)N[C@H](C(=O)N[C@@H](CCCCN)C(=O)N[C@@H](C)C(=O)N[C@@H](CS)C(=O)N[C@@H](CCC(=O)O)C(=O)N[C@@H](Cc1c[nH]c2ccccc12)C(=O)N[C@@H](C)C(=O)N[C@@H](CS)C(=O)N[C@@H](CCC(N)=O)C(=O)O)C(C)C)[C@@H](C)O (H-NRLCELLCIQGTGDVKACEWACQ-OH),13 µM

# Other lines, results leading:
row,Ki,SMILES
1,0.4 µM,CC[C@H](C)[C@H](NC(=O)[C@H](CS)NC(=O)[C@H](Cc1ccccc1Cl)NC(=O)[C@H](CC(C)C)NC(=O)[C@H](CCC(=O)O)NC(=O)[C@H](CS)NC(=O)[C@H](Cc1ccccc1)NC(=O)[C@H](CCCNC(=N)N)NC(=O)[C@@H](N)CC(N)=O)C(=O)N[C@@H](CCC(N)=O)C(=O)NCC(=O)N[C@H](C(=O)NCC(=O)N[C@@H](CC(=O)O)C(=O)N[C@H](C(=O)N[C@@H](CCCCN)C(=O)N[C@@H](C)C(=O)N[C@@H](CS)C(=O)N[C@@H](CCC(=O)O)C(=O)N[C@@H](Cc1c[nH]c2ccccc12)C(=O)N[C@@H](C)C(=O)N[C@@H](CS)C(=O)N[C@@H](CCC(N)=O)C(=O)O)C(C)C)[C@@H](C)O (H-NRFCEL[Phe(2-Cl)]CIQGTGDVKACEWACQ-OH)
2,4.1 µM,CC[C@H](C)[C@H](NC(=O)[C@H](CS)NC(=O)[C@H](Cc1ccccc1)NC(=O)[C@H](CCSC)NC(=O)[C@H](CCC(=O)O)NC(=O)[C@H](CS)NC(=O)[C@H](Cc1ccccc1)NC(=O)[C@H](CCCNC(=N)N)NC(=O)[C@@H](N)CC(N)=O)C(=O)N[C@@H](CCC(N)=O)C(=O)NCC(=O)N[C@H](C(=O)NCC(=O)N[C@@H](CC(=O)O)C(=O)N[C@H](C(=O)N[C@@H](CCCCN)C(=O)N[C@@H](C)C(=O)N[C@@H](CS)C(=O)N[C@@H](CCC(=O)O)C(=O)N[C@@H](Cc1c[nH]c2ccccc12)C(=O)N[C@@H](C)C(=O)N[C@@H](CS)C(=O)N[C@@H](CCC(N)=O)C(=O)O)C(C)C)[C@@H](C)O (H-NRFCEMFCIQGTGDVKACEWACQ-OH)
